We go through 2 compounds from patent US12220463B2, “Quaternary ammonium cyclodextrin and preparation method and uses thereof, and silver nanoparticle-cyclodextrin complex and preparation method and uses thereof” (Hubei University of Chinese Medicine, priority 2022, dated 2025).

The subject of data set [1] is Escherichia coli (E. coli). Kind of data set: Inhibition zone assay of bacteriostatic activity (GB/T 39101-2020, punching method). Format: cell-based. The following applies: FIG. 19, repeated three times. On the procedure: Preparation of a silver nanoparticle sample for control: 0.1 mol/L AgCl was dissolved in 16 mL of an ammonia solution at a mass concentration of 25% with continuous stirring, and an aqueous solution of 0.1 mol/L vitamin C was added dropwise. […] The solution was then filtered, and the precipitate was washed repeatedly with double-distilled water, dispersed in double-distilled water, and freeze-dried for 24 h to afford silver nanoparticles prepared from vitamin C.
Determination of antibacterial activity of polypeptides according to GB/T 39101-2020: Inhibition zone assays in the inhibition zone method evaluate the bacteriostatic activity of test substances. The strain used is Escherichia coli (E. coli) in an ampicillin solution having a concentration of 1.5 mg/mL, using the punching method instead of the “Oxford cup” method to control the sampling areas.

A short description of data set [2]: Inclusion rate of C-β-CD for thymol (UV absorbance at 278 nm). Format: physicochemical. The following applies: thymol/C-β-CD inclusion complex, 40° C. 2 h, freeze-dried. The procedure: 0.656 g of the cationic β-cyclodextrin (C-β-CD) prepared in Example 1 was weighed and added with 10 mL distilled water until completely dissolution. An anhydrous ethanol solution containing 0.075 g thymol (2 mL in total) was added. The mixture was magnetically stirred in a water bath at 40° C. for 2 h. After completion, the mixture was filtered with a 0.45 μm microporous membrane. The resulting solution was freeze-dried for 24 h to afford a thymol/C-β-CD inclusion complex.
15 mg of analytically pure thymol was weighed and dissolved in anhydrous ethanol, and the volume was adjusted to 10 mL to prepare a 1500 mg/L stock solution. A proper amount of the stock solution was taken and diluted with anhydrous ethanol into a series of standard solutions at a concentration of 50, 40, 30, 20, and 10 mg/L. In the optimal absorption wavelength, an absorbance A of the above series of standard solutions was determined. A standard curve was drawn with a thymol concentration (mg/L) as an abscissa and A as an ordinate.
0.1 g of the thymol/C-β-CD inclusion complex as prepared above was weighed and added into a 25 mL volumetric flask, added with anhydrous ethanol to dilute to the mark, and sonicated for 30 min. […] The absorbance A of the solution at 278 nm was determined, and taken into the regression equation to calculate the thymol content in the inclusion complex. […]

A short description of data set [3]: Inclusion rate of C-β-CD for cinnamaldehyde (UV absorbance at 287 nm). Format: physicochemical. The following applies: saturated aqueous solution method, 45° C. 4 h, freeze-dried. The procedure:
0.656 g the cationic β-cyclodextrin (C-β-CD) prepared in Example 1 was weighed and added with 10 mL distilled water until completely dissolution. An anhydrous ethanol solution containing 0.066 g cinnamaldehyde was added slowly. The mixture was magnetically stirred in a water bath at 45° C. for 4 h. After completion, the mixture was filtered with a 0.45 μm microporous membrane. The resulting solution was freeze-dried for 24 h to afford a cinnamaldehyde/C-β-CD inclusion complex.
10 mg analytically pure cinnamaldehyde was weighed and dissolved in anhydrous ethanol, and the volume was adjusted to 10 mL to prepare a 1000 mg/L stock solution. A proper amount of the stock solution was taken and diluted with anhydrous ethanol into a series of standard solutions at a concentration of 2, 4, 6, 8, and 10 mg/L. In the optimal absorption wavelength, the absorbance A of the above series of standard solutions was determined. […]
0.01 g of the C-β-CD inclusion complex of cinnamaldehyde was weighed and added into a 25 mL volumetric flask, added with anhydrous ethanol to dilute to the mark, and sonicated for 30 min. […] The absorbance A of the solution was determined at 287 nm and taken into the regression equation to calculate the cinnamaldehyde content in the inclusion complex (see the previous example for the conversion formula).

Consider `O=[N+]([O-])[O-].[Ag+]` [AgNO3, silver nitrate, reference compound], for which, in data set [1], the bacteriostatic effect entry is recorded as “weak bacteriostatic effect”.
For cationic β-cyclodextrin [C-β-CD], the “inclusion rate for thymol” value in data set [2] is listed as 63.55%. Also, the “inclusion rate for cinnamaldehyde” value in data set [3] is listed as 21.55%. Moreover, in data set [1], the bacteriostatic effect result is reported as “no bacteriostatic activity”.
